Source: ChEMBL document CHEMBL6127126, “Closing the Design-Make-Test-Analyze Loop: Interplay between Experiments and Predictions Drives PROTACs Bioavailability” (J Med Chem, 2024)

Key:
[1] = Lipophilicity, logD of compound in octanol-water at pH 7.4 by reverse phase HPLC analysis; type: physicochemical
[2] = Lipophilicity, logD of compound in octanol-water at pH 7.4 by shake-flask method; type: physicochemical
[3] = Oral bioavailability in C57 BL/6 or CD-1 mouse at 1 mg/kg measured upto 24 hrs by LC-MS/MS analysis; type: ADME, organism-based; conditions: in vivo

Row | SMILES | logD ([1]; read-out: logD) | logD [1] | logD ([2]; read-out: logD) | bioavailability [3] [%] | logD [2]
1 | COC(=O)C1=C(C)NC(C)=C(C(=O)OCCN(C)Cc2ccccc2)C1c1cccc([N+](=O)[O-])c1 (stereo not given) [NICARDIPINE] | 5 | – | – | – | –
2 | CC(C)(C)NC(=O)[C@@H]1C[C@@H]2CCCC[C@@H]2CN1C[C@@H](O)[C@H](Cc1ccccc1)NC(=O)[C@H](CC(N)=O)NC(=O)c1ccc2ccccc2n1 | 4.5 | – | – | – | –
3 | COC(=O)N[C@H](C(=O)N[C@@H](Cc1ccccc1)[C@@H](O)CN(Cc1ccc(-c2ccccn2)cc1)NC(=O)[C@@H](NC(=O)OC)C(C)(C)C)C(C)(C)C [ATAZANAVIR] | – | 4.2 | – | – | –
4 | O=C1CC[C@H](N2Cc3cc(N4CCN(CC5CCN(c6ccc([C@@H]7c8ccc(O)cc8CC[C@@H]7c7ccccc7)cc6)CC5)CC4)ccc3C2=O)C(=O)N1 [VEPDEGESTRANT] | – | 5.7 | 4.6 | 58.5 | –
5 | CC(=O)CC(c1ccccc1)c1c(O)c2ccccc2oc1=O (stereo not given) [WARFARIN] | 0.78 | – | – | – | –
6 | Cn1c(=O)n(C2CCC(=O)NC2=O)c2cccc(C#CCOC3CCN(C[C@H]4CC[C@H](n5cc(NC(=O)c6cnn7ccc(N8C[C@H]9C[C@@H]8CO9)nc67)c(C(F)F)n5)CC4)CC3)c21 (stereo not given in full) [KT-474] | – | 2.4 | 3.5 | 23.7 | –
7 | COc1cc(O[C@H]2C(C)(C)[C@H](NC(=O)c3ccc(N4CCC(CN5CCN(c6ccc(C(=O)N[C@H]7CCC(=O)NC7=O)c(F)c6)CC5)CC4)cc3)C2(C)C)ccc1C#N [LUXDEGALUTAMIDE] | 5 | – | 3.7 | 57.6 | –
8 | Cc1ncsc1-c1ccc(CNC(=O)[C@@H]2C[C@@H](O)CN2C(=O)[C@@H](NC(=O)C2(F)CC2)C(C)(C)C)c(OCCOc2ccc(CN3CCN(c4cc(-c5ccccc5O)nnc4N)CC3)cc2)c1 | 4.2 | – | 3.1 | 2.7 | –
9 | CCOC(=O)C1=C(C)NC(C)=C(C(=O)OC)C1c1cccc(Cl)c1Cl (stereo not given) [FELODIPINE] | – | 5.2 | – | – | –
10 | Cc1nc(CCC(=O)NCCCCC(=O)N[C@H](C(=O)N2C[C@H](O)C[C@H]2C(=O)NCc2ccc(-c3scnc3C)cc2)C(C)(C)C)ccc1-c1cnc(NCc2c(Cl)ccc3c2CCO3)n2cnnc12 | 2.5 | – | 3.8 | 0 | –
11 | Cc1ncsc1-c1ccc(CNC(=O)[C@@H]2C[C@@H](O)CN2C(=O)[C@@H](NC(=O)COCCOCCOCCNC(=O)C[C@@H]2N=C(c3ccc(Cl)cc3)c3c(sc(C)c3C)-n3c(C)nnc32)C(C)(C)C)cc1 | 3.4 | – | – | 0.16 | 3.8
12 | C=CCc1ccccc1OCC(O)CNC(C)C (stereo not given) [ALPRENOLOL] | 1.5 | – | – | – | –
13 | Cc1ncsc1-c1ccc([C@H](C)NC(=O)[C@@H]2C[C@@H](O)CN2C(=O)[C@@H](NC(=O)CCCCCC(=O)N2CCN(CC[C@H](CSc3ccccc3)Nc3ccc(S(=O)(=O)NC(=O)c4ccc(N5CCN(CC6=C(c7ccc(Cl)cc7)CCC(C)(C)C6)CC5)cc4)cc3S(=O)(=O)C(F)(F)F)CC2)C(C)(C)C)cc1 [DT-2216] | 7.3 | – | 3.9 | 0.07 | –
14 | CN(C)CCC=C1c2ccccc2C=Cc2ccccc21 [CYCLOBENZAPRINE] | 3.1 | – | – | – | –
15 | N#Cc1ccc(O[C@H]2CC[C@H](NC(=O)c3ccc(N4CCC(CN5CCN(c6cc7c(cc6F)C(=O)N(C6CCC(=O)NC6=O)C7=O)CC5)CC4)nn3)CC2)cc1Cl (stereo not given in full) [BAVDEGALUTAMIDE] | 5 | – | 4.8 | 64.6 | –
16 | CC1(C)[C@H](NC(=O)c2ccc(N3CCN(CC4CCN(c5ccc6c(c5)C(=O)N(C5CCC(=O)NC5=O)C6=O)CC4)CC3)cc2)C(C)(C)[C@H]1Oc1ccc(C#N)c(Cl)c1 (stereo not given in full) | 6.2 | – | 4.6 | 61.4 | –
17 | CC1(C)CCC(CN2CCN(c3ccc(C(=O)NS(=O)(=O)c4ccc(NCC5CCOCC5)c([N+](=O)[O-])c4)c(Oc4cnc5[nH]ccc5c4)c3)CC2)=C(c2ccc(Cl)cc2)C1 [VENETOCLAX] | 7.9 | – | – | – | –
